In series [1] the test system is Ba/F3 (Δ19 del/T790M/C797S). The experiment in a line: In vivo efficacy in BALB/c nude mice with subcutaneous Ba/F3 (Δ19 del/T790M/C797S) xenograft (CDX). The settings on record: for tumor volume inhibition value (TGI): 13 consecutive days. As to the method: In vivo drug efficacy experiment was performed on xenograft (CDX) BALB/c nude mice subcutaneously implanted with Ba/F3 (Δ19 del/T790M/C797S) source. BALB/c nude mice (female, 6-8 weeks, weighing about 18-22 g) were bred in SPF-rated environments, and each cage was ventilated individually (5 mice per cage). All animals were free to obtain a standard certified commercial laboratory diet. 48 mice in total were purchased from Beijing Vital River Laboratory Animal Technology Co., Ltd for the study. Each mouse was implanted with cells subcutaneously in the right flank for tumor growth. The experiment was started when the mean tumor volume reached about 80-120 mm^3. The test compound was administered orally daily with the compound of formula (I) (5 mg/kg, 15 mg/kg, 45 mg/kg, respectively) administered for 13 consecutive days, and the data are shown in Table 5. Tumor volume was measured twice weekly with a two-dimensional caliper, and the volume was measured in mm^3 and calculated according to the following formula: V=0.5a×b^2, where a and b are the long and short diameters, respectively, of the tumor. Anti-tumor efficacy was determined by dividing the mean tumor increase volume of compound-treated animals by the mean tumor increase volume of untreated animals.

For the next series, the system named is lung cancer PC-9 cells. Kind of series: In vivo efficacy in mice with subcutaneous lung cancer PC-9 xenograft. Set-up: species or system mouse. The settings on record: 50 mg/kg (0-9 days), 25 mg/kg (10-21 days) oral once a day. As to the method:
1. Cell culture: lung cancer PC-9 cells were cultured in an RPMI 1640 medium containing 10% fetal bovine serum, 100 U/mL penicillin and 100 μg/mL streptomycin through in vitro monolayer culture in an incubator at 37° C./5% CO2. The cells were digested with trypsin-EDTA twice a week for passaging as per conventional practice. At a cell saturation of 80%-90% and a required number, the cells were collected and counted. The cell density was 5×10^6 cells. 2. Cell inoculation: 0.2 mL (containing 5×10^6) of a suspension of PC-9 cells (PBS:Matrigel=1:1) was subcutaneously inoculated in the right back of each mouse, and 64 mice were inoculated in total. On day 7 after inoculation, when mean tumor volume was measured to be 169 mm^3, grouping administration was performed using a randomized stratified grouping method based on tumor volume and mice body weight. PBS is phosphate buffered saline, and Matrigel is matrigel. 3. Administration: the dosage was 50 mg/kg for 0-9 days and 25 mg/kg for 10-21 days; the drug was orally administrated once a day for 3 weeks.
Tumor diameters were measured twice weekly using a vernier caliper. The tumor volume was calculated using the following formula: V=0.5a×b^2, where a and b represent the long diameter and short diameter of the tumor respectively.
The efficacy of compounds against tumor was evaluated by TGI (%).
Relative tumor volume (RTV) was calculated based on the results of tumor measurement. The formula is RTV=Vt/V0, where V0 represents the tumor volume measured at the time point of grouping and administration (i.e., Do), and Vt represents the tumor volume at a certain measurement for the corresponding mouse, the data of TRTV and CRTV should be measured on the same day.
TGI (%) reflects the tumor growth inhibition rate. TGI (%)=[(1−(average tumor volume at the end of administration in a treatment group−average tumor volume at the start of administration of the treatment group))/(average tumor volume at the end of treatment of the solvent control group−average tumor volume at the start of treatment of the solvent control group)]×100%.
Tumor weights will be measured at the end of the experiment and the TGI (%) was calculated.

Series [2] in a line: Plasma, tumor and lung exposure in the efficacy-study mice after last administration. Type of series: in vivo, BALB/c nude mice. The settings on record: 15.0 mg/kg/day oral. As to the method: On day 14 after administration to the groups for the efficacy experiment, before the last administration and 2 h after the last administration, the plasma of the mice was collected by blood collection from the submandibular vein, and the plasma of the mice was collected at 1 h, 4 h, 8 h, and 24 h after the administration. About 100 μL of blood was collected each time, placed in an anticoagulation tube, and centrifuged at 8000 rpm for 7 min to collect blood plasma, and the blood plasma was preserved at −80° C. Tissues of mouse lung and tumor were collected at the same time 2 h after the administration and stored at −80° C.

For series [3], the system named is L858R/T790M/C797S mutation. The conditions noted are these: in combination with an EGFR monoclonal antibody drug such as Cetuximab; cited from earlier work.
The mark [4] stands for this setting: BALB/c nude, mouse, plasma, day 14.

As a reminder, the TGI is the reduction of tumour growth relative to the control group. Lower therefore signals little slowing of growth. As usually defined, the AUC(0-t) is exposure summed from dosing to a finite time, without extrapolation to infinity. Low values mean less exposure, high ones more exposure. Usually half-life stands for the time in which the quantity being followed falls by half. Lower therefore signals fast loss.

`COc1cc(N2CCC(N3CCN(C)CC3)CC2)c(C)cc1Nc1ncc(Br)c(Nc2ccc3nccnc3c2P(C)(C)=O)n1` [Compound of formula (I)]: the Tumor volume in series [1] (5 mg/kg/day oral, Day 0) came to 84 mm^3; in series [1] (5 mg/kg/day oral, Day 2), 108 mm^3; in series [1] (5 mg/kg/day oral, Day 5) it was 212 mm^3; in series [1] (5 mg/kg/day oral, Day 8), 395 mm^3; in series [1] (5 mg/kg/day oral, Day 10) it was 505 mm^3; in series [1] (5 mg/kg/day oral, Day 12), 748 mm^3. For the same molecule, the Tumor volume in series [1] (5 mg/kg/day oral, Day 13) was found to be 881 mm^3; in series [1] (15 mg/kg/day oral, Day 0), 84 mm^3; in series [1] (15 mg/kg/day oral, Day 2), 76 mm^3; in series [1] (15 mg/kg/day oral, Day 5), 107 mm^3; in series [1] (15 mg/kg/day oral, Day 8) it was 126 mm^3; in series [1] (15 mg/kg/day oral, Day 10), 176 mm^3. For the same molecule, the Tumor volume in series [1] (15 mg/kg/day oral, Day 12) stood at 292 mm^3; in series [1] (15 mg/kg/day oral, Day 13) it was 326 mm^3; in series [1] (45 mg/kg/day oral, Day 0) it was 84 mm^3; in series [1] (45 mg/kg/day oral, Day 2), 56 mm^3; in series [1] (45 mg/kg/day oral, Day 5), 32 mm^3; in series [1] (45 mg/kg/day oral, Day 8), 35 mm^3. Further, the Tumor volume is reported as 42 mm^3 in series [1] (45 mg/kg/day oral, Day 10); 73 mm^3 in series [1] (45 mg/kg/day oral, Day 12); 68 mm^3 in series [1] (45 mg/kg/day oral, Day 13); 185 mm^3 with lung cancer PC-9 cells (Day 0); 198 mm^3 in the series on lung cancer PC-9 cells (Day 2); 92 mm^3 in the series with lung cancer PC-9 cells (Day 6). The Tumor volume with lung cancer PC-9 cells (Day 9) is given as 75 mm^3; in the series on lung cancer PC-9 cells (Day 13), 40 mm^3; with lung cancer PC-9 cells (Day 16) it was 45 mm^3; in the series with lung cancer PC-9 cells (Day 20) it was 76 mm^3; in the series on lung cancer PC-9 cells (Day 23) it was 111 mm^3. Moreover, the entries for the “tumor volume inhibition value (TGI)” value in series [1] (15 mg/kg oral daily) and in series [1] (45 mg/kg oral daily) were 74.9% and 101.69%, respectively. Further, the TGI in the series on lung cancer PC-9 cells (day 23) is given as 100%. Besides, in series [2] (2 h after last administration), the “Lung concentration, 2 h” value is listed as 32533 nmol/kg. Besides, in series [2] (2 h after last administration), the “Tumor concentration, 2 h” value is given as 16667 nmol/kg. For the same molecule, in series [2] (BALB/c nude, mouse, plasma, 2 h after last administration), the concentration at 2 h was 3.55 µM. Also, the AUC(0-t) in series [2] (setting [4]) is 57 µM·h. In series [2] (setting [4]), the half-life is 10 h.

As for `O=C(Nc1nccs1)C(c1cc(F)ccc1O)N1Cc2ccccc2C1=O` (centres unmarked) [EAI045], the tumor inhibitory effect result in series [3] was “good tumor inhibitory effect”.
